Results reported in patent US9066945B2, “Ectoparasiticidal active substance combinations” (Bayer Intellectual Property GmbH, priority 2010, dated 2015).

Tested on: adult fleas (Ctenocephalides felis)
Assay: In vitro contact test with fleas (coated test tubes)
Settings: B-11 alone
Description: According to S. R. Colby, Weeds 15 (1967), 20-22, the expected action for a given combination of two active compounds can be calculated as follows: if • X is the kill rate, expressed in % of the untreated control, when employing active compound A at an application rate of m g/ha or in a concentration of m ppm, • Y is the kill rate, expressed in % of the untreated control, when employing active compound B at an application rate of n g/ha or in a concentration of n ppm and • E is the kill rate, expressed in % of the untreated control, when employing active compounds A and B at application rates of m and n g/ha or in a concentration of m and n ppm, • then
In this case, the actually observed kill rate must exceed the value calculated using the above formula for the expected kill rate (E).
In vitro contact tests with ticks and fleas
From Table 1, representatives of important classes of active compounds (component B) were now tested in combination with pyrazine derivatives of the formula (I) according to the invention as component A against arachnids and insects. To this end, roll-necked test tubes were coated with a solution of active compound A or B or a combination of the two in acetone (2 h of swing rotation at 30 rpm in a fume cupboard). […]

## demiditraz [B-11]
  insecticidal activity in the contact test method: no insecticidal activity
